For orientation: IC50 means the concentration that inhibits the measured activity by half.

One experiment addresses T1, Nek7^WT (Homo sapiens, UniProt Q8TDX7).
T1 construct: wild-type Nek7, C-terminal non-cleavable His6-tag
As to the kind of experiment: X-ray co-crystal structure, […] Å; IC50 from LabChip EZ Reader kinase assay. The class given is biochemical.

For a further experiment, the target named is T2, Nek7^SRS (Homo sapiens, UniProt Q8TDX7, L180F/L86H/Y97F).
T2 construct: Nek7 strong R-spine mutant, C-terminal non-cleavable His6-tag
T2 sequence (Q8TDX7 whole entry L86H/Y97F/L180F): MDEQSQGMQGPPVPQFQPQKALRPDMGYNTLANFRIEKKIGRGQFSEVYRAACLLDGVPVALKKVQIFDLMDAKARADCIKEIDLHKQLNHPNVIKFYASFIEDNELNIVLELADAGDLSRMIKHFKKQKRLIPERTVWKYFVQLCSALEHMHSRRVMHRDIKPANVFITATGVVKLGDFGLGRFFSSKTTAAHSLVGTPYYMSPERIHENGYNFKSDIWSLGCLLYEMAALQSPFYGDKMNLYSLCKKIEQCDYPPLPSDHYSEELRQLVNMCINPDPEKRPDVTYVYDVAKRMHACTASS
The description is as above. In kind it is biochemical.

T1 sequence (Q8TDX7 whole entry): as the sequence (Q8TDX7 whole entry L86H/Y97F/L180F) above, with H86L, F97Y, F180L counted along it

`CN(C)CCCNS(=O)(=O)c1cccc(Nc2nc(OCC3CCCCC3)c3nc[nH]c3n2)c1` [compound 51]: the IC50 was 79 µM on Nek7^WT and 40.1 µM against Nek7^SRS.
